In ChEMBL document CHEMBL4602639, “A novel series of 11-O-carbamoyl-3-O-descladinosyl clarithromycin derivatives bearing 1,2,3-triazole group: Design, synthesis and antibacterial evaluation” (2020):
In brackets after ≈: the same amount, converted by molar mass.

How the values were obtained:
Type in all cases: functional
Staphylococcus aureus [1] = assay: Antibacterial activity against erythromycin-susceptible Staphylococcus aureus ATCC 25923 by standard broth microdilution method
Escherichia coli = assay: Antibacterial activity against penicillin-susceptible Escherichia coli ATCC 25922 by standard broth microdilution method
Bacillus subtilis = assay: Antibacterial activity against penicillin-susceptible Bacillus subtilis ATCC 9372 by standard broth microdilution method
Pseudomonas aeruginosa = assay: Antibacterial activity against penicillin-susceptible Pseudomonas aeruginosa ATCC 27853 by standard broth microdilution method
Streptococcus pneumoniae [2] = assay: Antibacterial activity against erythromycin-resistant Streptococcus pneumoniae AB11 expressing ermB and me/A genes by standard broth microdilution method
Streptococcus pneumoniae [3] = assay: Antibacterial activity against erythromycin-resistant Streptococcus pneumoniae B1 expressing ermB gene by standard broth microdilution method
Streptococcus pyogenes = assay: Antibacterial activity against erythromycin resistant Streptococcus pyogenes R1 by standard broth microdilution method
Staphylococcus aureus [4] = assay: Antibacterial activity against methicillin-resistant Staphylococcus aureus ATCC 43300 by standard broth microdilution method

| Structure (SMILES) | MIC (Staphylococcus aureus [1]) [µg/mL] | MIC (Escherichia coli) [µg/mL] | MIC (Bacillus subtilis) [µg/mL] | MIC (Pseudomonas aeruginosa) [µg/mL] | MIC (Streptococcus pneumoniae [2]) [µg/mL] | MIC (Streptococcus pneumoniae [3]) [µg/mL] | MIC (Streptococcus pyogenes) [µg/mL] | MIC (Staphylococcus aureus [4]) [µg/mL] |
| --- | --- | --- | --- | --- | --- | --- | --- | --- |
| CC[C@H]1OC(=O)[C@H](C)C(=O)[C@H](C)[C@@H](O[C@H]2O[C@@H](C)C[C@@H](N(C)C)[C@@H]2O)[C@](C)(OC)C[C@@H](C)C(=O)[C@H](C)[C@@H](OC(=O)NCCn2cc(-c3ccc(Cl)cc3)nn2)[C@]1(C)O | 8 (≈ 9.56 µM) | > 128 | 4 (≈ 4.78 µM) | 128 (≈ 153 µM) | 128 (≈ 153 µM) | 128 (≈ 153 µM) | 64 (≈ 76.5 µM) | 256 (≈ 306 µM) |
| CCc1ccc(-c2cn(CCNC(=O)O[C@@H]3[C@@H](C)C(=O)[C@H](C)C[C@@](C)(OC)[C@H](O[C@H]4O[C@@H](C)C[C@@H](N(C)C)[C@@H]4O)[C@@H](C)C(=O)[C@@H](C)C(=O)O[C@H](CC)[C@@]3(C)O)nn2)cc1 | 32 (≈ 38.6 µM) | > 128 | 4 (≈ 4.82 µM) | 128 (≈ 154 µM) | 256 (≈ 308 µM) | > 256 | 128 (≈ 154 µM) | > 256 |
| CCOc1ccc(-c2cn(CCNC(=O)O[C@@H]3[C@@H](C)C(=O)[C@H](C)C[C@@](C)(OC)[C@H](O[C@H]4O[C@@H](C)C[C@@H](N(C)C)[C@@H]4O)[C@@H](C)C(=O)[C@@H](C)C(=O)O[C@H](CC)[C@@]3(C)O)nn2)cc1 | 16 (≈ 18.9 µM) | > 128 | 16 (≈ 18.9 µM) | 128 (≈ 151 µM) | 256 (≈ 303 µM) | > 256 | 128 (≈ 151 µM) | > 256 |
| CC[C@H]1OC(=O)[C@H](C)C(=O)[C@H](C)[C@@H](O[C@H]2O[C@@H](C)C[C@@H](N(C)C)[C@@H]2O)[C@](C)(OC)C[C@@H](C)C(=O)[C@H](C)[C@@H](OC(=O)NCCn2cc(-c3cccc(F)c3)nn2)[C@]1(C)O | 8 (≈ 9.76 µM) | > 128 | 4 (≈ 4.88 µM) | 128 (≈ 156 µM) | 128 (≈ 156 µM) | 256 (≈ 312 µM) | 128 (≈ 156 µM) | 256 (≈ 312 µM) |
| CC[C@H]1OC(=O)[C@H](C)[C@@H](O[C@H]2C[C@@](C)(OC)[C@@H](O)[C@H](C)O2)[C@H](C)[C@@H](O[C@@H]2O[C@H](C)C[C@H](N(C)C)[C@H]2O)[C@](C)(O)C[C@@H](C)CN(C)[C@H](C)[C@@H](O)[C@]1(C)O [AZITHROMYCIN] | 0.25 (≈ 0.334 µM) | > 128 | 0.25 (≈ 0.334 µM) | 4 (≈ 5.34 µM) | 256 (≈ 342 µM) | > 256 | 256 (≈ 342 µM) | > 256 |
| CC[C@H]1OC(=O)[C@H](C)C(=O)[C@H](C)[C@@H](O[C@H]2O[C@@H](C)C[C@@H](N(C)C)[C@@H]2O)[C@](C)(OC)C[C@@H](C)C(=O)[C@H](C)[C@@H](OC(=O)NCCn2cc(-c3cccc(Cl)c3)nn2)[C@]1(C)O | 8 (≈ 9.56 µM) | > 128 | 4 (≈ 4.78 µM) | 128 (≈ 153 µM) | 128 (≈ 153 µM) | 128 (≈ 153 µM) | 64 (≈ 76.5 µM) | 256 (≈ 306 µM) |
| CC[C@H]1OC(=O)[C@H](C)C(=O)[C@H](C)[C@@H](O[C@H]2O[C@@H](C)C[C@@H](N(C)C)[C@@H]2O)[C@](C)(OC)C[C@@H](C)C(=O)[C@H](C)[C@@H](OC(=O)NCCn2cc(-c3ccccc3OC)nn2)[C@]1(C)O | 16 (≈ 19.2 µM) | > 128 | 4 (≈ 4.81 µM) | 128 (≈ 154 µM) | > 256 | > 256 | 256 (≈ 308 µM) | > 256 |
| CC[C@H]1OC(=O)[C@H](C)C(=O)[C@H](C)[C@@H](O[C@H]2O[C@@H](C)C[C@@H](N(C)C)[C@@H]2O)[C@](C)(OC)C[C@@H](C)C(=O)[C@H](C)[C@@H](OC(=O)NCCn2cc(-c3ccccc3)nn2)[C@]1(C)O | 32 (≈ 39.9 µM) | > 128 | 8 (≈ 9.98 µM) | 128 (≈ 160 µM) | 256 (≈ 319 µM) | 256 (≈ 319 µM) | 256 (≈ 319 µM) | > 256 |
| CC[C@H]1OC(=O)[C@H](C)C(=O)[C@H](C)[C@@H](O[C@H]2O[C@@H](C)C[C@@H](N(C)C)[C@@H]2O)[C@](C)(OC)C[C@@H](C)C(=O)[C@H](C)[C@@H](OC(=O)NCCn2cc(-c3ccc([N+](=O)[O-])cc3)nn2)[C@]1(C)O | 16 (≈ 18.9 µM) | > 128 | 4 (≈ 4.72 µM) | 128 (≈ 151 µM) | 256 (≈ 302 µM) | 256 (≈ 302 µM) | 64 (≈ 75.6 µM) | > 256 |
| CC[C@H]1OC(=O)[C@H](C)C(=O)[C@H](C)[C@@H](O[C@H]2O[C@@H](C)C[C@@H](N(C)C)[C@@H]2O)[C@](C)(OC)C[C@@H](C)C(=O)[C@H](C)[C@@H](OC(=O)NCCn2cc(-c3ccc(C)cc3)nn2)[C@]1(C)O | 32 (≈ 39.2 µM) | > 128 | 8 (≈ 9.8 µM) | 128 (≈ 157 µM) | 256 (≈ 314 µM) | > 256 | 256 (≈ 314 µM) | > 256 |
| CC[C@H]1OC(=O)[C@H](C)C(=O)[C@H](C)[C@@H](O[C@H]2O[C@@H](C)C[C@@H](N(C)C)[C@@H]2O)[C@](C)(OC)C[C@@H](C)C(=O)[C@H](C)[C@@H](OC(=O)NCCn2cc(-c3cccc(Br)c3)nn2)[C@]1(C)O | 16 (≈ 18.2 µM) | > 128 | 8 (≈ 9.08 µM) | 128 (≈ 145 µM) | 128 (≈ 145 µM) | 256 (≈ 291 µM) | 128 (≈ 145 µM) | > 256 |
